Test results from US6737383B1, “Herbicidal oxadiazolidines” (priority 1999, dated 2004).

Tests used:
[1] = test system: bedstraw; assay: Test B pre/postemergence bedstraw; assay type: in vivo, Galium aparine
In short: (§1)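 Response is a visual 0-to-10 score relative to untreated plants, where 0 means no effect and 10 means complete control, taken twelve to sixteen days after application. Treatments went onto soil at planting and onto foliage of 1- to 4-leaf plants, using a surfactant-containing non-phytotoxic solvent.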

[2] = test system: blackgrass; assay: Test B pre/postemergence blackgrass; assay type: in vivo, Alopecurus myosuroides
In short: as §1

[3] = test system: surinam grass; assay: Test B pre/postemergence surinam grass; assay type: in vivo, Brachiaria decumbens
In short: as §1

[4] = test system: smallflower flatsedge; assay: Test B flood test smallflower flatsedge; assay type: in vivo, Cyperus difformis
In short: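 Plants were grown to the 2-leaf stage before treatment with test chemical, then held in a greenhouse for twelve to sixteen days. Injury was visually rated against untreated controls on a 0–10 scale, where 0 is no effect and 10 is complete control.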

[5] = test system: winter wheat; assay: Test E winter wheat; assay type: in vivo, Triticum aestivum; details: Postemergence
In short: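 For postemergence, plants at the 1- to 4-leaf stage, in a 60:40 mix of sandy loam and potting mix, treated with compound formulated in a surfactant-containing non-phytotoxic solvent. Visual assessment versus untreated controls followed roughly 21–28 days in the greenhouse.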

[6] = test system: blackgrass; assay: Test E blackgrass; assay type: in vivo, Alopecurus myosuroides; details: Preemergence
[7] = test system: green foxtail; assay: Test E green foxtail; assay type: in vivo, Setaria viridis; details: Preemergence
[8] = test system: Italian ryegrass; assay: Test E Italian ryegrass; assay type: in vivo, Lolium multiflorum; details: Preemergence
[9] = test system: winter wheat; assay: Test E winter wheat; assay type: in vivo, Triticum aestivum; details: Preemergence
[10] = test system: wild oat; assay: Test E wild oat; assay type: in vivo, Avena fatua; details: Preemergence
[11] = test system: winter barley; assay: Test E winter barley; assay type: in vivo, Hordeum vulgare; details: Preemergence
[12] = Preemergence, Rate 250 g/ha, scale of 0 to 10 where 0 is no effect and 10 is complete control
[13] = Preemergence, Rate 500 g/ha, scale of 0 to 10 where 0 is no effect and 10 is complete control
[14] = Rate 62 g/ha, Postemergence, scale 0 to 10 (0 no effect, 10 complete control)
[15] = Rate 125 g/ha, Postemergence, scale of 0 to 10 where 0 is no effect and 10 is complete control
[16] = Rate 125 g/ha, Preemergence, scale of 0 to 10 where 0 is no effect and 10 is complete control
[17] = Preemergence, Rate 62 g/ha, scale of 0 to 10 where 0 is no effect and 10 is complete control
[18] = Rate 250 g/ha, Postemergence, scale of 0 to 10 where 0 is no effect and 10 is complete control
[19] = Rate 500 g/ha, Postemergence, scale 0 to 10, 0 no effect, 10 complete control
[20] = Rate 62 g/ha, headed Pre-emergence (flood test species), scale 0 to 10 (0 no effect, 10 complete control)
[21] = Rate 125 g/ha, Pre-emergence, flood test species, scale 0 to 10 where 0 is no effect and 10 is complete control
[22] = Rate 250 g/ha, Pre-emergence, flood-test species, scale 0 to 10, 0 is no effect, 10 is complete control
[23] = Rate 500 g/ha, Pre-emergence, flood test species, scale 0 to 10 (0 no effect, 10 complete control)
[24] = Rate 500 g/ha, 0 to 100 scale, 0 is no effect, 100 is complete control
[25] = Rate 500 g/ha, 0 to 100 scale (0 no effect, 100 complete control)
[26] = Rate 1000 g/ha, 0 to 100 scale, 0 no effect, 100 complete control
[27] = Rate 62 g/ha, Postemergence, scale of 0 to 10 where 0 is no effect and 10 is complete control
[28] = Rate 125 g/ha, Postemergence, scale 0 to 10
[29] = Rate 125 g/ha, Postemergence, scale 0 (no effect) to 10 (complete control)
[30] = Rate 125 g/ha, 0 to 100 scale, 0 is no effect, 100 is complete control
[31] = Rate 250 g/ha, 0 to 100 scale where 0 is no effect and 100 is complete control
[32] = Rate 125 g/ha, 0 to 100 scale (0 no effect, 100 complete control)
[33] = Rate 500 g/ha, 0 to 100 scale where 0 is no effect and 100 is complete control
[34] = Rate 500 g/ha, Postemergence, scale 0 to 10

CCN(CC)C(=O)n1oc(=O)n(C2CC2)c1=O [Compound 297]
Bedstraw plant response rating [1, 12]: 0 | Plant response rating, Bedstraw [1, 13]: 0 | Bedstraw plant response rating [1, 14]: 0 | Bedstraw plant response rating [1, 15]: 0 | Bedstraw plant response rating [1, 16]: 0 | Blackgrass plant response rating [2, 17]: 0 | Blackgrass plant response rating [2, 12]: 0 | Plant response rating, Blackgrass [2, 13]: 0 | Blackgrass plant response rating [2, 14]: 0 | Blackgrass plant response rating [2, 15]: 0 | Blackgrass plant response rating [2, 16]: 0 | Plant response rating, Blackgrass [2, 18]: 0 | Blackgrass plant response rating [2, 19]: 0 | B. signalgrass plant response rating [3, 17]: 0 | B. signalgrass plant response rating [3, 12]: 0 | Plant response rating, B. signalgrass [3, 13]: 0 | B. signalgrass plant response rating [3, 14]: 0 | B. signalgrass plant response rating [3, 15]: 0 | B. signalgrass plant response rating [3, 16]: 0 | Plant response rating, B. signalgrass [3, 18]: 0 | B. signalgrass plant response rating [3, 19]: 0 | S. Flatsedge plant response rating [4, 20]: 0 | S. Flatsedge plant response rating [4, 21]: 0 | S. Flatsedge plant response rating [4, 22]: 3 | S. Flatsedge plant response rating [4, 23]: 3 | Plant response rating, Wheat (winter) ([5]; Rate 250 g/ha, 0 to 100 scale, 0 is no effect, 100 is complete control): 50 | Plant response rating, Wheat (winter) ([5]; Rate 1000 g/ha, 0 to 100 scale where 0 is no effect and 100 is complete control): 70 | Plant response rating, Wheat (winter) [5, 24]: 60 | Plant response rating, Blackgrass ([6]; Rate 250 g/ha, 0 to 100 scale): 40 | Plant response rating, Blackgrass [6, 25]: 20 | Plant response rating, Blackgrass [6, 26]: 50 | Plant response rating, Green foxtail ([7]; Rate 250 g/ha, 0 to 100 scale): 60 | Plant response rating, Green foxtail [7, 25]: 60 | Plant response rating, Green foxtail [7, 26]: 60 | Plant response rating, I. Ryegrass ([8]; Rate 250 g/ha, 0 to 100 scale): 60 | Plant response rating, I. Ryegrass [8, 25]: 50 | Plant response rating, I. Ryegrass [8, 26]: 40 | Plant response rating, Wheat (winter) ([9]; Rate 250 g/ha, 0 to 100 scale): 30 | Plant response rating, Wheat (winter) [9, 25]: 60 | Plant response rating, Wheat (winter) [9, 26]: 70 | Plant response rating, Wild oat ([10]; Rate 250 g/ha, 0 to 100 scale): 70 | Plant response rating, Wild oat [10, 25]: 60 | Plant response rating, Wild oat [10, 26]: 70 | Plant response rating, Barley (winter) ([11]; Rate 250 g/ha, 0 to 100 scale, 0 no effect, 100 complete control): 50 | Plant response rating, Barley (winter) [11, 25]: 55 | Plant response rating, Barley (winter) [11, 26]: 60

CC(C)N(C(=O)n1oc(=O)n(C2CC2)c1=O)c1ccc(Cl)cc1 [Compound 241]
Bedstraw plant response rating [1, 12]: 7 | Plant response rating, Bedstraw [1, 13]: 10 | Bedstraw plant response rating [1, 27]: 0 | Bedstraw plant response rating [1, 28]: 3 | Bedstraw plant response rating [1, 16]: 0 | Plant response rating (0 to 10; 0 is no effect, 10 is complete control), Bedstraw ([1]; Rate 250 g/ha, Postemergence): 7 | Bedstraw plant response rating [1, 19]: 7 | Blackgrass plant response rating [2, 17]: 6 | Blackgrass plant response rating [2, 12]: 7 | Plant response rating, Blackgrass [2, 13]: 10 | Blackgrass plant response rating [2, 27]: 3 | Blackgrass plant response rating [2, 28]: 7 | Blackgrass plant response rating [2, 16]: 6 | Plant response rating (0 to 10; 0 is no effect, 10 is complete control), Blackgrass ([2]; Rate 250 g/ha, Postemergence): 8 | Blackgrass plant response rating [2, 19]: 9 | B. signalgrass plant response rating [3, 17]: 0 | B. signalgrass plant response rating [3, 12]: 4 | Plant response rating, B. signalgrass [3, 13]: 4 | B. signalgrass plant response rating [3, 27]: 0 | B. signalgrass plant response rating [3, 29]: 2 | B. signalgrass plant response rating [3, 16]: 2 | Plant response rating (0 to 10; 0 is no effect, 10 is complete control), B. signalgrass ([3]; Rate 250 g/ha, Postemergence): 4 | B. signalgrass plant response rating [3, 19]: 6 | S. Flatsedge plant response rating [4, 20]: 0 | S. Flatsedge plant response rating [4, 21]: 0 | S. Flatsedge plant response rating [4, 22]: 0 | S. Flatsedge plant response rating [4, 23]: 0 | Plant response rating, Wheat (winter) [5, 30]: 20 | Wheat (winter) plant response rating [5, 31]: 60 | Plant response rating, Wheat (winter) [5, 24]: 50 | Plant response rating, Blackgrass [6, 32]: 60 | Blackgrass plant response rating (0 to 100 scale) ([6]; Rate 250 g/ha): 100 | Plant response rating, Blackgrass [6, 33]: 98 | Plant response rating, Green foxtail [7, 32]: 65 | Green foxtail plant response rating (0 to 100 scale) ([7]; Rate 250 g/ha): 90 | Plant response rating, Green foxtail [7, 33]: 90 | Plant response rating, I. Ryegrass [8, 32]: 60 | I. Ryegrass plant response rating (0 to 100 scale) ([8]; Rate 250 g/ha): 70 | Plant response rating, I. Ryegrass [8, 33]: 100 | Plant response rating, Wheat (winter) [9, 32]: 40 | Wheat (winter) plant response rating (0 to 100 scale) ([9]; Rate 250 g/ha): 50 | Plant response rating, Wheat (winter) [9, 33]: 60 | Plant response rating, Wild oat [10, 32]: 50 | Wild oat plant response rating (0 to 100 scale) ([10]; Rate 250 g/ha): 60 | Plant response rating, Wild oat [10, 33]: 55 | Plant response rating, Barley (winter) [11, 32]: 40 | Barley (winter) plant response rating (0 to 100 scale) ([11]; Rate 250 g/ha): 50 | Plant response rating, Barley (winter) [11, 33]: 60

CC(C)N(C(=O)n1oc(=O)n(CCC(F)=C(F)F)c1=O)c1ccc(F)cc1 [Compound 218]
Bedstraw plant response rating [1, 17]: 0 | Bedstraw plant response rating [1, 12]: 0 | Plant response rating, Bedstraw [1, 13]: 3 | Bedstraw plant response rating [1, 27]: 6 | Bedstraw plant response rating [1, 28]: 8 | Bedstraw plant response rating [1, 16]: 0 | Bedstraw plant response rating [1, 34]: 8 | Blackgrass plant response rating [2, 17]: 8 | Blackgrass plant response rating [2, 12]: 9 | Plant response rating, Blackgrass [2, 13]: 10 | Blackgrass plant response rating [2, 27]: 5 | Blackgrass plant response rating [2, 28]: 5 | Blackgrass plant response rating [2, 16]: 9 | Plant response rating (0 to 10; 0 is no effect, 10 is complete control), Blackgrass ([2]; Rate 250 g/ha, Postemergence): 7 | Blackgrass plant response rating [2, 34]: 8 | B. signalgrass plant response rating [3, 17]: 0 | B. signalgrass plant response rating ([3]; Preemergence, Rate 250 g/ha, scale 0 to 10, 0 is no effect, 10 is complete control): 6 | Plant response rating, B. signalgrass [3, 13]: 7 | B. signalgrass plant response rating [3, 27]: 0 | B. signalgrass plant response rating [3, 29]: 0 | B. signalgrass plant response rating [3, 16]: 4 | Plant response rating (0 to 10; 0 is no effect, 10 is complete control), B. signalgrass ([3]; Rate 250 g/ha, Postemergence): 3 | B. signalgrass plant response rating [3, 19]: 7 | S. Flatsedge plant response rating [4, 20]: 0 | S. Flatsedge plant response rating [4, 21]: 0 | S. Flatsedge plant response rating [4, 22]: 0 | S. Flatsedge plant response rating [4, 23]: 0 | Plant response rating, Wheat (winter) [5, 30]: 65 | Wheat (winter) plant response rating [5, 31]: 70 | Plant response rating, Wheat (winter) [5, 24]: 85 | Plant response rating, Blackgrass [6, 32]: 65 | Blackgrass plant response rating (0 to 100 scale) ([6]; Rate 250 g/ha): 70 | Plant response rating, Blackgrass [6, 33]: 100 | Plant response rating, Green foxtail [7, 32]: 30 | Green foxtail plant response rating (0 to 100 scale) ([7]; Rate 250 g/ha): 55 | Plant response rating, Green foxtail [7, 33]: 85 | Plant response rating, I. Ryegrass [8, 32]: 55 | I. Ryegrass plant response rating (0 to 100 scale) ([8]; Rate 250 g/ha): 60 | Plant response rating, I. Ryegrass [8, 33]: 70 | Plant response rating, Wheat (winter) [9, 32]: 50 | Wheat (winter) plant response rating (0 to 100 scale) ([9]; Rate 250 g/ha): 40 | Plant response rating, Wheat (winter) [9, 33]: 50 | Plant response rating, Wild oat [10, 32]: 70 | Wild oat plant response rating (0 to 100 scale) ([10]; Rate 250 g/ha): 65 | Plant response rating, Wild oat [10, 33]: 70 | Plant response rating, Barley (winter) [11, 32]: 40 | Barley (winter) plant response rating (0 to 100 scale) ([11]; Rate 250 g/ha): 50 | Plant response rating, Barley (winter) [11, 33]: 65
